≈ marks a conversion by molar mass, not a printed value.
Key:
HepG2 = assay: Antiproliferative activity against human HepG2 cells after 48 hrs by MTT assay; type: functional, cell-based; details: HepG2, 48 h
[1] = Inhibition of bovine brain tubulin polymerization after 20 mins by turbidimetry; parameters: species or system Bos taurus
B16-F10 [2] = assay: Antiproliferative activity against mouse B16F10 cells after 48 hrs by MTT assay; type: functional, cell-based; details: B16-F10, 48 h
A549 = assay: Antiproliferative activity against human A549 cells after 48 hrs by MTT assay; type: functional, cell-based; details: A549, 48 h
B16-F10 [3] = assay: Ratio of resveratrol IC50 to compound IC50 for mouse B16F10 cells; type: functional
B16-F10 [4] = assay: Cell cycle arrest in mouse B16F10 cells assessed as accumulation at G2/M phase at 1 ug/ml after 24 hrs using propidium iodide staining by flow cytometry (reference value: 18 %); type: functional
B16-F10 [5] = assay: Cell cycle arrest in mouse B16F10 cells assessed as accumulation at S phase at 1 ug/ml after 24 hrs using propidium iodide staining by flow cytometry (reference value: 12 %); type: functional
B16-F10 [6] = assay: Cell cycle arrest in mouse B16F10 cells assessed as accumulation at Go/G1 phase at 1 ug/ml after 24 hrs using propidium iodide staining by flow cytometry (reference value: 68 %); type: functional

IC50 (HepG2) | IC50 [1] | IC50 (B16-F10 [2]) | IC50 (A549) | SMILES | Ratio IC50 (B16-F10 [3]) | Activity (B16-F10 [4]) | Activity (B16-F10 [5]) | Activity (B16-F10 [6])
4.79 µg/mL (≈ 11.2 µM) | 6.28 µg/mL (≈ 14.7 µM) | 2.66 µg/mL (≈ 6.24 µM) | 5.25 µg/mL (≈ 12.3 µM) | COc1ccc(/C=C/c2cc(OC)cc(OC)c2/C=C/C(=O)/C=C/c2ccccc2)cc1 |  |  |  | 
5.82 µg/mL (≈ 12.7 µM) | 5.99 µg/mL (≈ 13.1 µM) | 2.13 µg/mL (≈ 4.67 µM) | 6.49 µg/mL (≈ 14.2 µM) | COc1ccc(/C=C/c2cc(OC)cc(OC)c2/C=C/C(=O)/C=C/c2ccccc2OC)cc1 |  |  |  | 
8.52 µg/mL (≈ 18.7 µM) | 8.05 µg/mL (≈ 17.6 µM) | 2.72 µg/mL (≈ 5.96 µM) | 7.66 µg/mL (≈ 16.8 µM) | COc1ccc(/C=C/c2cc(OC)cc(OC)c2/C=C/C(=O)/C=C/c2cccc(OC)c2)cc1 |  |  |  | 
6.99 µg/mL (≈ 15.3 µM) | 2.89 µg/mL (≈ 6.33 µM) | 2.4 µg/mL (≈ 5.26 µM) | 7.65 µg/mL (≈ 16.8 µM) | COc1ccc(/C=C/C(=O)/C=C/c2c(/C=C/c3ccc(OC)cc3)cc(OC)cc2OC)cc1 |  |  |  | 
1.6 µg/mL (≈ 3.29 µM) | 1.45 µg/mL (≈ 2.98 µM) | 0.71 µg/mL (≈ 1.46 µM) | 2.1 µg/mL (≈ 4.32 µM) | COc1ccc(/C=C/c2cc(OC)cc(OC)c2/C=C/C(=O)/C=C/c2cc(OC)cc(OC)c2)cc1 | 50 | 52% | 14% | 28%
2.78 µg/mL (≈ 5.71 µM) | 2.11 µg/mL (≈ 4.34 µM) | 1.3 µg/mL (≈ 2.67 µM) | 4.09 µg/mL (≈ 8.41 µM) | COc1ccc(/C=C/c2cc(OC)cc(OC)c2/C=C/C(=O)/C=C/c2cc(OC)ccc2OC)cc1 |  |  |  | 
4.58 µg/mL (≈ 10.4 µM) | 3.08 µg/mL (≈ 6.99 µM) | 1.67 µg/mL (≈ 3.79 µM) | 4.08 µg/mL (≈ 9.26 µM) | COc1ccc(/C=C/c2cc(OC)cc(OC)c2/C=C/C(=O)/C=C/c2cccc(C)c2)cc1 |  |  |  | 
2.37 µg/mL (≈ 5.38 µM) | 2.68 µg/mL (≈ 6.08 µM) | 1.08 µg/mL (≈ 2.45 µM) | 2.69 µg/mL (≈ 6.11 µM) | COc1ccc(/C=C/c2cc(OC)cc(OC)c2/C=C/C(=O)/C=C/c2ccc(C)cc2)cc1 |  |  |  | 
4.12 µg/mL (≈ 9.06 µM) | 3.57 µg/mL (≈ 7.85 µM) | 1.57 µg/mL (≈ 3.45 µM) | 5.33 µg/mL (≈ 11.7 µM) | COc1ccc(/C=C/c2cc(OC)cc(OC)c2/C=C/C(=O)/C=C/c2ccc(C)c(C)c2)cc1 |  |  |  | 
4.85 µg/mL (≈ 10.9 µM) |  | 2.51 µg/mL (≈ 5.65 µM) | 8.01 µg/mL (≈ 18 µM) | COc1ccc(/C=C/c2cc(OC)cc(OC)c2/C=C/C(=O)/C=C/c2ccccc2F)cc1 |  |  |  | 
12.4 µg/mL (≈ 27 µM) |  | 5.94 µg/mL (≈ 12.9 µM) | 15.2 µg/mL (≈ 33 µM) | COc1ccc(/C=C/c2cc(OC)cc(OC)c2/C=C/C(=O)/C=C/c2ccccc2Cl)cc1 |  |  |  | 
10.2 µg/mL (≈ 20.3 µM) |  | 3.09 µg/mL (≈ 6.11 µM) | 9.37 µg/mL (≈ 18.5 µM) | COc1ccc(/C=C/c2cc(OC)cc(OC)c2/C=C/C(=O)/C=C/c2ccccc2Br)cc1 |  |  |  | 
2.65 µg/mL (≈ 5.96 µM) |  | 1.67 µg/mL (≈ 3.76 µM) | 4.47 µg/mL (≈ 10.1 µM) | COc1ccc(/C=C/c2cc(OC)cc(OC)c2/C=C/C(=O)/C=C/c2cccc(F)c2)cc1 |  |  |  | 
6.94 µg/mL (≈ 15.1 µM) |  | 2.99 µg/mL (≈ 6.49 µM) | 8.23 µg/mL (≈ 17.9 µM) | COc1ccc(/C=C/c2cc(OC)cc(OC)c2/C=C/C(=O)/C=C/c2cccc(Cl)c2)cc1 |  |  |  | 
5.52 µg/mL (≈ 10.9 µM) |  | 1.97 µg/mL (≈ 3.9 µM) | 4.75 µg/mL (≈ 9.4 µM) | COc1ccc(/C=C/c2cc(OC)cc(OC)c2/C=C/C(=O)/C=C/c2cccc(Br)c2)cc1 |  |  |  | 
4.35 µg/mL (≈ 9.79 µM) |  | 1.81 µg/mL (≈ 4.07 µM) | 5.83 µg/mL (≈ 13.1 µM) | COc1ccc(/C=C/c2cc(OC)cc(OC)c2/C=C/C(=O)/C=C/c2ccc(F)cc2)cc1 |  |  |  | 
8.29 µg/mL (≈ 18 µM) |  | 3.17 µg/mL (≈ 6.88 µM) | 11.2 µg/mL (≈ 24.2 µM) | COc1ccc(/C=C/c2cc(OC)cc(OC)c2/C=C/C(=O)/C=C/c2ccc(Cl)cc2)cc1 |  |  |  | 
7.75 µg/mL (≈ 15.3 µM) |  | 2.44 µg/mL (≈ 4.83 µM) | 7.89 µg/mL (≈ 15.6 µM) | COc1ccc(/C=C/c2cc(OC)cc(OC)c2/C=C/C(=O)/C=C/c2ccc(Br)cc2)cc1 |  |  |  | 

IC50 (HepG2) | IC50 [1] | IC50 (B16-F10 [2]) | IC50 (A549) | SMILES | Ratio IC50 (B16-F10 [3]) | Activity (B16-F10 [4]) | Activity (B16-F10 [5]) | Activity (B16-F10 [6])
4.67 µg/mL (≈ 9.43 µM) |  | 2.11 µg/mL (≈ 4.26 µM) | 5.05 µg/mL (≈ 10.2 µM) | COc1ccc(/C=C/c2cc(OC)cc(OC)c2/C=C/C(=O)/C=C/c2ccc(Cl)cc2Cl)cc1 |  |  |  | 
9.49 µg/mL (≈ 19.2 µM) |  | 2.73 µg/mL (≈ 5.51 µM) | 6.99 µg/mL (≈ 14.1 µM) | COc1ccc(/C=C/c2cc(OC)cc(OC)c2/C=C/C(=O)/C=C/c2ccc(Cl)c(Cl)c2)cc1 |  |  |  | 
3.28 µg/mL (≈ 6.62 µM) |  | 2.08 µg/mL (≈ 4.2 µM) | 6.18 µg/mL (≈ 12.5 µM) | COc1ccc(/C=C/c2cc(OC)cc(OC)c2/C=C/C(=O)/C=C/c2cc(Cl)cc(Cl)c2)cc1 |  |  |  | 
9.31 µg/mL (≈ 18.8 µM) |  | 3.07 µg/mL (≈ 6.2 µM) | 8.93 µg/mL (≈ 18 µM) | COc1ccc(/C=C/c2cc(OC)cc(OC)c2/C=C/C(=O)/C=C/c2c(Cl)cccc2Cl)cc1 |  |  |  | 
9.07 µg/mL (≈ 18.9 µM) |  | 1.79 µg/mL (≈ 3.74 µM) | 4.65 µg/mL (≈ 9.71 µM) | COc1ccc(/C=C/c2cc(OC)cc(OC)c2/C=C/C(=O)/C=C/c2ccc(F)c(Cl)c2)cc1 |  |  |  | 
5.97 µg/mL (≈ 12.9 µM) |  | 2.23 µg/mL (≈ 4.82 µM) | 6.23 µg/mL (≈ 13.5 µM) | COc1ccc(/C=C/c2cc(OC)cc(OC)c2/C=C/C(=O)/C=C/c2ccc(F)c(F)c2)cc1 |  |  |  | 
2.74 µg/mL (≈ 5.98 µM) |  | 1.8 µg/mL (≈ 3.93 µM) | 3.98 µg/mL (≈ 8.68 µM) | COc1ccc(/C=C/c2cc(OC)cc(OC)c2/C=C/C(=O)/C=C/c2cccc(F)c2C)cc1 |  |  |  | 
1.96 µg/mL (≈ 4.27 µM) | 1.81 µg/mL (≈ 3.95 µM) | 0.75 µg/mL (≈ 1.64 µM) | 2.32 µg/mL (≈ 5.06 µM) | COc1ccc(/C=C/c2cc(OC)cc(OC)c2/C=C/C(=O)/C=C/c2cc(F)ccc2C)cc1 |  |  |  | 
5.38 µg/mL (≈ 10.9 µM) |  | 3.1 µg/mL (≈ 6.27 µM) | 4.97 µg/mL (≈ 10.1 µM) | COc1ccc(/C=C/c2cc(OC)cc(OC)c2/C=C/C(=O)/C=C/c2cccc(C(F)(F)F)c2)cc1 |  |  |  | 
6.79 µg/mL (≈ 12.8 µM) |  | 1.85 µg/mL (≈ 3.5 µM) | 5.96 µg/mL (≈ 11.3 µM) | COc1ccc(/C=C/c2cc(OC)cc(OC)c2/C=C/C(=O)/C=C/c2cc(C(F)(F)F)ccc2Cl)cc1 |  |  |  | 
6.75 µg/mL (≈ 14.3 µM) |  | 3.43 µg/mL (≈ 7.27 µM) | 11.7 µg/mL (≈ 24.7 µM) | COc1ccc(/C=C/c2cc(OC)cc(OC)c2/C=C/C(=O)/C=C/c2ccccc2[N+](=O)[O-])cc1 |  |  |  | 
2.44 µg/mL (≈ 5.17 µM) |  | 1.47 µg/mL (≈ 3.12 µM) | 3.09 µg/mL (≈ 6.55 µM) | COc1ccc(/C=C/c2cc(OC)cc(OC)c2/C=C/C(=O)/C=C/c2cccc([N+](=O)[O-])c2)cc1 |  |  |  | 
6.95 µg/mL (≈ 14.7 µM) |  | 2.35 µg/mL (≈ 4.98 µM) | 6.69 µg/mL (≈ 14.2 µM) | COc1ccc(/C=C/c2cc(OC)cc(OC)c2/C=C/C(=O)/C=C/c2ccc([N+](=O)[O-])cc2)cc1 |  |  |  | 
4.43 µg/mL (≈ 9.45 µM) |  | 2.24 µg/mL (≈ 4.78 µM) | 6.06 µg/mL (≈ 12.9 µM) | COc1ccc(/C=C/c2cc(OC)cc(OC)c2/C=C/C(=O)/C=C/c2ccc(C(C)C)cc2)cc1 |  |  |  | 
9.17 µg/mL (≈ 21.5 µM) |  | 3.12 µg/mL (≈ 7.3 µM) | 9.16 µg/mL (≈ 21.4 µM) | COc1ccc(/C=C/c2cc(OC)cc(OC)c2/C=C/C(=O)/C=C/c2ccccn2)cc1 |  |  |  | 
3.5 µg/mL (≈ 8.19 µM) |  | 1.48 µg/mL (≈ 3.46 µM) | 3.48 µg/mL (≈ 8.14 µM) | COc1ccc(/C=C/c2cc(OC)cc(OC)c2/C=C/C(=O)/C=C/c2cccnc2)cc1 |  |  |  | 
8.41 µg/mL (≈ 24.9 µM) |  | 2.88 µg/mL (≈ 8.51 µM) | 6.97 µg/mL (≈ 20.6 µM) | COc1ccc(/C=C/c2cc(OC)cc(OC)c2/C=C/C(C)=O)cc1 |  |  |  | 
 |  |  |  | COc1cc2c(c(OC)c1OC)-c1ccc(OC)c(=O)cc1[C@@H](NC(C)=O)CC2 [COLCHICINE] |  | 85% | 3% | 2%
